Source: paper PMC3724985, “Isolation, biochemical characterization, and cloning of a bacteriocin from the poultry-associated Staphylococcus aureus strain CH-91” (Applied Microbiology and Biotechnology, 2012)

Tested on: StpC
Assay: Residual proteolytic activity of culture media with E-64 (Hide Powder Azure)
Type: biochemical
Conditions: E-64 at 0.01, 0.1 and 1.0 mM in S. aureus CH-91 culture (TSB, 37 °C), 0.1 M Tris–HCl pH 7.5, 5 mM cysteine, 5 mM EDTA
Method: S. aureus CH-91 was cultured at 37 °C in TSB supplemented with the cysteine peptidase inhibitor E-64 (1-[N-[(L-3-trans-carboxyoxirane-2-carbonyl)-L-leucyl] amino]-4-guanidinobutane; Sigma) at final concentrations of 1.0, 0.1, and 0.01 mM. Aliquots were removed at 5, 10, and 24 h, and the bacteria-free supernatants were obtained by centrifugation.
The residual proteolytic activity of collected culture media was determined at 37 °C using Hide Powder Azure (Calbiochem) in 0.1 M Tris–HCl (pH 7.5) supplemented with 5 mM cysteine and 5 mM EDTA.

**Q.** For CC(C)C[C@H](NC(=O)[C@H]1O[C@@H]1C(=O)O)C(=O)NCCCCNC(=N)N (relative stereo) [E-64, 1-[N-[(L-3-trans-carboxyoxirane-2-carbonyl)-L-leucyl]amino]-4-guanidinobutane], which “residual proteolytic activity in culture media containing the inhibitor” value is on record?
**A.** The value was “No residual proteolytic activity was detected”.
